The source of these data is patent publication US20100222328A1, “2-CYCLOPROPYL-THIAZOLE DERIVATIVES” (priority 2007, published 2010).

Assay [1] deals with T1, human orexin-1 receptor (Homo sapiens, UniProt O43613).
T1 construct: expressed in transfected cells; host or cells: CHO cells (grown under G418 selection)
T1 sequence (O43613 1-425): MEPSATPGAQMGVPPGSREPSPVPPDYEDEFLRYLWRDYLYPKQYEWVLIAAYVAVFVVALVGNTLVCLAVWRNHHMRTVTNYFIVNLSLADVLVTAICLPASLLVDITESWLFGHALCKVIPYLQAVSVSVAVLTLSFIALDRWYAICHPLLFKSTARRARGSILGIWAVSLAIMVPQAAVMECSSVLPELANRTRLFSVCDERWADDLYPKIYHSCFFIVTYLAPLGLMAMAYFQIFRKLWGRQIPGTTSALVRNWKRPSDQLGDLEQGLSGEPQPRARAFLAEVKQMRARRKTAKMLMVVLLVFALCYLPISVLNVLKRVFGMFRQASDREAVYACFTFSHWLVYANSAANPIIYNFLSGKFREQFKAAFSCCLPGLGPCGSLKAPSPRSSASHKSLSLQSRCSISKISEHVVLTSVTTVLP
As to the kind of experiment: Intracellular calcium measurements (FLIPR), CHO cells expressing the human orexin-1 receptor, orexin-A as agonist. In kind it is cell-based. Conditions: 3 nM orexin-A, read-out: OX1 IC50. The protocol:
(§1) The orexin receptor antagonistic activity of the compounds of formula (I) is determined in accordance with the following experimental method.
(§2) Chinese hamster ovary (CHO) cells expressing the human orexin-1 receptor and the human orexin-2 receptor, respectively, are grown in culture medium (Ham F-12 with L-Glutamine) containing 300 μg/ml G418, 100 U/ml penicillin, 100 μg/ml streptomycin and 10% heat inactivated fetal calf serum (FCS). The cells are seeded at 20′000 cells/well into 384-well black clear bottom sterile plates (Greiner). The seeded plates are incubated overnight at 37° C. in 5% CO2.
(§3) Human orexin-A as an agonist is prepared as 1 mM stock solution in MeOH: water (1:1), diluted in HBSS containing 0.1% bovine serum albumin (BSA), NaHCO3: 0.375g/l and 20 mM HEPES for use in the assay at a final concentration of 3 nM.
(§4) Antagonists are prepared as 10 mM stock solution in DMSO, then diluted in 384-well plates using DMSO followed by a transfer of the dilutions into in HBSS containing 0.1% bovine serum albumin (BSA), NaHCO3: 0.375 g/l and 20 mM HEPES. On the day of the assay, 50 μl of staining buffer (HBSS containing 1% FCS, 20 mM HEPES, NaHCO3: 0.375 g/l, 5 mM probenecid (Sigma) and 3 μM of the fluorescent calcium indicator fluo-4 AM (1 mM stock solution in DMSO, containing 10% pluronic) is added to each well. The 384-well cell-plates are incubated for 50 min at 37° C. in 5% CO2 followed by equilibration at rt for 30-120 min before measurement.
(§5) Within the Fluorescent Imaging Plate Reader (FLIPR2 or FLIPR Tetra, Molecular Devices), antagonists are added to the plate in a volume of 10 μl/well, incubated for 10 min and finally 10 μl/well of agonist is added. Fluorescence is measured for each well at 1 second intervals, and the height of each fluorescence peak is compared to the height of the fluorescence peak induced by 3 nM orexin-A with vehicle in place of antagonist. For each antagonist, the IC50 value (the concentration of compound needed to inhibit 50% of the agonistic response) is determined. The calculated IC50 values of the compounds may fluctuate depending on the daily cellular assay performance. Fluctuations of this kind are known to those skilled in the art.
In general terms: Calcium assays in cells follow changes in intracellular calcium, usually with a dye or a luminescent sensor.

For assay [2], the target named is T2, human orexin-2 receptor (Homo sapiens, UniProt O43614).
T2 construct: expressed in transfected cells; host or cells: CHO cells (grown under G418 selection)
T2 sequence (O43614 1-444): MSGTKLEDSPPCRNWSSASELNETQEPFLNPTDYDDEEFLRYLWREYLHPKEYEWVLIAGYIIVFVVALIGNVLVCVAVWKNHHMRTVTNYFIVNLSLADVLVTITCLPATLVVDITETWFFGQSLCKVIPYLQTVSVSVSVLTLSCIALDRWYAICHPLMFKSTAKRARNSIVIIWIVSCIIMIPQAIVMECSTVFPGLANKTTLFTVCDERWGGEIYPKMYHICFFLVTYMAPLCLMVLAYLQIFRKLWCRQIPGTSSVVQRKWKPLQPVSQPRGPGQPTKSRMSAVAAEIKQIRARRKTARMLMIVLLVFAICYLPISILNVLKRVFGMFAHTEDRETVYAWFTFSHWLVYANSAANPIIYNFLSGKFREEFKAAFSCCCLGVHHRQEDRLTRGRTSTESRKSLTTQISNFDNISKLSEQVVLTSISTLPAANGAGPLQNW
In words: Intracellular calcium measurements (FLIPR), CHO cells expressing the human orexin-2 receptor, orexin-A as agonist. In kind it is cell-based. To be noted: 3 nM orexin-A, read-out: OX2 IC50. The protocol: as §1, §2, §3, §4, §5

Molecules are shown by their SMILES. Where two headings read alike, the source gives them in different places.

The IC50 is the concentration that inhibits the measured activity by half. As for `O=C(NC[C@@H]1CCCCN1C(=O)c1nc(C2CC2)sc1-c1cccc(C(F)(F)F)c1)c1cccc(Br)c1` [Example 71, (S)-3-Bromo-N-{1-[2-cyclopropyl-5-(3-trifluoromethyl-phenyl)-thiazole-4-carbonyl]-piperidin-2-ylmethyl}-benzamide], the IC50 worked out at 7.2 nM in assay [1] (measured on FLIPR2) and 26 nM in assay [2] (measured on FLIPR2).
The corresponding values for `Cc1cccc(-c2sc(C3CC3)nc2C(=O)N2CCCC[C@H]2CNC(=O)c2cc3occc3n2C)c1` [Example 51, (S)-4-Methyl-4H-furo[3,2-b]pyrrole-5-carboxylic acid [1-(2-cyclopropyl-5-m-tolyl-thiazole-4-carbonyl)-piperidin-2-ylmethyl]-amide] are 25 nM and 15 nM.
Turning to `Cc1nc2sccn2c1C(=O)NC[C@@H]1CCCCN1C(=O)c1nc(C2CC2)sc1-c1ccccc1F` [Example 10, (S)-6-Methyl-imidazo[2,1-b]thiazole-5-carboxylic acid {1-[2-cyclopropyl-5-(2-fluoro-phenyl)-thiazole-4-carbonyl]-piperidin-2-ylmethyl}-amide], the IC50 worked out at 1.8 nM in assay [1] (measured on FLIPR2) and 3 nM in assay [2] (measured on FLIPR2).
The corresponding values for `Cc1cccc(C(=O)NC[C@@H]2CCCCN2C(=O)c2nc(C3CC3)sc2-c2ccccc2F)c1` [Example 1, (S)—N-{1-[2-Cyclopropyl-5-(2-fluoro-phenyl)-thiazole-4-carbonyl]-piperidin-2-ylmethyl}-3-methyl-benzamide] are 19 nM and 16 nM.
As to `O=C(NC[C@@H]1CCCCN1C(=O)c1nc(C2CC2)sc1-c1ccccc1)c1cnc2sccn12` [Example 96, (S)-Imidazo[2,1-b]thiazole-5-carboxylic acid [1-(2-cyclopropyl-5-phenyl-thiazole-4-carbonyl)-piperidin-2-ylmethyl]-amide], the IC50 came out at 3.6 nM in assay [1] (measured on FLIPR Tetra) and 4.5 nM in assay [2] (measured on FLIPR Tetra).
The corresponding values for `Cc1cccc(-c2sc(C3CC3)nc2C(=O)N2CCCC[C@H]2CNC(=O)c2cccc3c2CCO3)c1` [Example 107, (S)-2,3-Dihydro-benzofuran-4-carboxylic acid [1-(2-cyclopropyl-5-m-tolyl-thiazole-4-carbonyl)-piperidin-2-ylmethyl]-amide] are 18 nM and 22 nM.
The corresponding values for `Cn1nc(C(=O)NC[C@@H]2CCCCN2C(=O)c2nc(C3CC3)sc2-c2ccccc2)c2ccccc21` [Example 100, (S)-1-Methyl-1H-indazole-3-carboxylic acid [1-(2-cyclopropyl-5-phenyl-thiazole-4-carbonyl)-piperidin-2-ylmethyl]-amide] are 14 nM and 20 nM.
Consider `O=C(NC[C@@H]1CCCN1C(=O)c1nc(C2CC2)sc1-c1ccc(F)cc1)c1cccc2occc12` [Example 88, (S)-Benzofuran-4-carboxylic acid {1-[2-cyclopropyl-5-(4-fluoro-phenyl)-thiazole-4-carbonyl]-pyrrolidin-2-ylmethyl}-amide], for which the figures for the IC50 in assay [1] (measured on FLIPR2) and in assay [2] (measured on FLIPR2) were 23 nM and 15 nM, respectively.
Turning to `Cc1cccc(-c2sc(C3CC3)nc2C(=O)N2CCCC[C@H]2CNC(=O)c2cccc(F)c2C)c1` [Example 114, (S)—N-[1-(2-Cyclopropyl-5-m-tolyl-thiazole-4-carbonyl)-piperidin-2-ylmethyl]-3-fluoro-2-methyl-benzamide], the figures for the IC50 in assay [1] (measured on FLIPR Tetra) and in assay [2] (measured on FLIPR Tetra) were 15 nM and 19 nM, respectively.
Take `O=C(NC[C@@H]1CCCCN1C(=O)c1nc(C2CC2)sc1-c1cccc(Cl)c1)c1noc2ccccc12` [Example 68, (S)-Benzo[d]isoxazole-3-carboxylic acid {1-[5-(3-chloro-phenyl)-2-cyclopropyl-thiazole-4-carbonyl]-piperidin-2-ylmethyl}-amide]: the IC50 was 19 nM in assay [1] (measured on FLIPR2) and 11 nM in assay [2] (measured on FLIPR2).
The corresponding values for `Cc1ccc(-c2sc(C3CC3)nc2C(=O)N2CCCC[C@H]2CNC(=O)c2c(C)nc3sccn23)cc1` [Example 31, (S)-6-Methyl-imidazo[2,1-b]thiazole-5-carboxylic acid [1-(2-cyclopropyl-5-p-tolyl-thiazole-4-carbonyl)-piperidin-2-ylmethyl]-amide] are 2.2 nM and 8.6 nM.
As for `Cn1c(C(=O)NC[C@@H]2CCCCN2C(=O)c2nc(C3CC3)sc2-c2ccccc2)cc2occc21` [Example 131, (S)-4-Methyl-4H-furo[3,2-b]pyrrole-5-carboxylic acid [1-(2-cyclopropyl-5-phenyl-thiazole-4-carbonyl)-piperidin-2-ylmethyl]-amide], the IC50 was determined as 123 nM in assay [1] (measured on FLIPR Tetra) and 17 nM in assay [2] (measured on FLIPR Tetra).
In the case of `O=C(NC[C@@H]1CCCCN1C(=O)c1nc(C2CC2)sc1-c1ccccc1F)c1cccc2cccnc12` [Example 5, (S)-Quinoline-8-carboxylic acid {1-[2-cyclopropyl-5-(2-fluoro-phenyl)-thiazole-4-carbonyl]-piperidin-2-ylmethyl}-amide], the IC50 came to 5.1 nM in assay [1] (measured on FLIPR2) and 7.7 nM in assay [2] (measured on FLIPR2).
